The values that follow come from patent US5349127A, “Expression of herbicide metabolizing cytochromes P450” (priority 1992, dated 1994).

For data set [1], the system named is S. ambofaciens PH4002. The experiment in a line: Metabolism of 10001 by untransformed strain (Example 14). Format: in vitro ADME, Streptomyces ambofaciens. The note with it: substrate 10001 120 ug/ml.
In data set [2] the test system is S. lividans pCAO200SU1-FeS-B#9. Nature of the data set: Sulfonylurea metabolism by washed cell suspension (Examples 6-9). Format: in vitro ADME, Streptomyces lividans.
Data set [3] has as its system S. lividans C37. The experiment in a line: Metabolism of 10001 in growing culture, HPLC of supernatant (Example 4). Format: in vitro ADME, Streptomyces lividans. The note with it: 0.12 mg/ml 10001 in culture. Here is the method: Herbicides and their metabolites are measured by HPLC as described by Romesser et al., BBRC 140: 650-659 (1986), herein incorporated by reference, except that 0.1% H3 PO4 is used in both solvents. Chromatographic identity and quantitation of the herbicides and their resulting metabolites is determined by comparing them chromatographically with authentic standard compounds. Identity of the resulting metabolites is also confirmed by UV spectroscopy.
Separate cultures (50 ml) inoculated with S. lividans C37, S. lividans transformed with pCAO400 or S. lividans transformed with pCAO401 in sporulation broth containing 0.12 mg/ml of 10001 were grown with shaking at 30° C. Aliquots (1.5 ml) of each culture were removed at 24, 32, 48 and 56 hours after inoculation and the supernatant of each aliquot was analyzed by HPLC for its concentration of 10001 and its metabolites 10002 or 10003.

Data set [4] relates to Tomato seedlings (Lysopersicon esculentum cv. Pixie). The experiment in a line: Tomato transplants in sulfonylurea-treated soil after dipping in water, YEME or S. lividans culture (Example 13). The following applies: for Mean value of visual ratings / Visual Injury Ratings of individual transplanted tomatoes: 19 DAT. It is filed as in vivo. The protocol: A 2 liter culture of S. lividans pCAO200SU1-FeS-B#9 was grown in YEME medium at 30° C. until the culture was in […] log phase of growth and the absorbance in a spectrophotometer at a wavelength of 600 nm was between about 1.0 and 1.3. Tomato seedlings (Lysopersicon esculentum cv. "Pixie") were seeded directly into soiless media, Oasis Wedges® (Smithers-Oasis, Kent, Ohio), fertilized with 500 ppm Peters'® fertilizer (20:19:18); and 300 ppm of iron was added weekly. As the tomato plants develop, roots ramify through the Oasis Wedges®. The tomato plants were transplanted to pots when they were 4 inches tail as follows.
Five inch standard round pots (without holes) were filled with Sassafras sandy loam (pH 6.7, 0.8% OM) and an oasis cube. The contents of the each pot was sprayed, prior to transplanting the tomato plants, with either 10001, in 25% dry flowable composition (25 DF) or 10010, 75 DF at rates of 16, 32, 64, 125 or 250 grams of active ingredient per hectare (g ai/ha). The Oasis cube was then removed and replaced by another containing a transplant tomato plant dipped in either water (treatment A), YEME medium (treatment B)-or the culture of S. lividans pCAO200SU1-FeS-B#9 described above (treatment C). Six transplant tomato plants received each of the three treatments, and five transplant tomato plants (to serve as controls) received no treatment. The resulting tomato plants were grown in a greenhouse for 19 days and watered twice daily, after which they were evaluated for visual injury (100=complete kill, other numbers=percentage of injury relative to controls [subjectively determined], 0=no injury) with respect to the water dipped, no-herbicide control treatments. The plants were left in the greenhouse for one more week after which the fresh weights of the shoots of the plants were determined. The roots of the plants which received these treatments and controls were examined too.

[5] abbreviates: 16 g ai/ha, Treatment A (water).
The mark [6] stands for this setting: 16 g ai/ha, Treatment A (water), scale 0-100.
Where [7] appears, read: 16 g ai/ha, Treatment B (YEME), scale 0-100.
[8] abbreviates: 16 g ai/ha, Treatment C (pCAO200SU1-FeS-B#9).
Setting [9] is: 16 g ai/ha, Treatment C (pCAO200SU1-FeS-B#9), scale 0-100.
Setting [10] is: 32 g ai/ha, Treatment A (water).
Where [11] appears, read: 32 g ai/ha, Treatment A (water), scale 0-100.
[12] abbreviates: 32 g ai/ha, Treatment B (YEME), scale 0-100.
Where [13] appears, read: 32 g ai/ha, Treatment C (pCAO200SU1-FeS-B#9).
Where [14] appears, read: 32 g ai/ha, Treatment C (pCAO200SU1-FeS-B#9), scale 0-100.
The mark [15] stands for this setting: 64 g ai/ha, Treatment A (water), scale 0-100.
The mark [16] stands for this setting: 64 g ai/ha, Treatment B (YEME), scale 0-100.
The mark [17] stands for this setting: 64 g ai/ha, Treatment C (pCAO200SU1-FeS-B#9), scale 0-100.
Setting [18] is: 125 g ai/ha, Treatment A (water), scale 0-100.
[19] abbreviates: 125 g ai/ha, Treatment B (YEME), scale 0-100.
[20] abbreviates: 125 g ai/ha, Treatment C (pCAO200SU1-FeS-B#9), scale 0-100.
[21] abbreviates: 250 g ai/ha, Treatment A (water), scale 0-100, 100 = complete kill.
Where [22] appears, read: 250 g ai/ha, Treatment B (YEME), scale 0-100.
The mark [23] stands for this setting: 250 g ai/ha, Treatment C (pCAO200SU1-FeS-B#9), scale 0-100.

In the case of `CCOC(=O)c1ccccc1S(=O)(=O)NC(=O)Nc1nc(Cl)cc(OC)n1` [compound 10001, N-[(4-chloro-6-methoxy-pyrimidin-2-yl)aminocarbonyl]-2-ethoxycarbonylbenzenesulfonamide], the concentration in supernatant in data set [1] (1.0 h) came out at 406 µM; in data set [1] (4.0 h), 412 µM; in data set [2] (substrate 10001, 2 h), 28 µM; in data set [2] (substrate 10001, 4 h), 0 µM; in data set [2] (substrate 10001, 6 h) it was 0 µM; in data set [3] (0 h), 325 µM. Moreover, the concentration in supernatant in data set [3] (24 h) is 320 µM; in data set [3] (32 h), 295 µM; in data set [3] (48 h), 281 µM; in data set [3] (56 h), 280 µM. Besides, the “Mean Shoot Fresh Weights” value in data set [4] (setting [5]) is reported as 3.25 grams; in data set [4] (16 g ai/ha, Treatment B (YEME)), 2.35 grams; in data set [4] (setting [8]) it was 3.1 grams; in data set [4] (setting [10]) it was 2.49 grams; in data set [4] (32 g ai/ha, Treatment B (YEME)), 1.76 grams; in data set [4] (setting [13]), 3.37 grams. Further, the “Mean Shoot Fresh Weights” value worked out at 1.37 grams in data set [4] (64 g ai/ha, Treatment A (water)); 1.40 grams in data set [4] (64 g ai/ha, Treatment B (YEME)); 2.94 grams in data set [4] (64 g ai/ha, Treatment C (pCAO200SU1-FeS-B#9)); 0.80 grams in data set [4] (125 g ai/ha, Treatment A (water)); 1.06 grams in data set [4] (125 g ai/ha, Treatment B (YEME)); 2.72 grams in data set [4] (125 g ai/ha, Treatment C (pCAO200SU1-FeS-B#9)). Also, the “Mean Shoot Fresh Weights” value in data set [4] (250 g ai/ha, Treatment A (water)) was 0.63 grams; in data set [4] (250 g ai/ha, Treatment B (YEME)) it was 0.40 grams; in data set [4] (250 g ai/ha, Treatment C (pCAO200SU1-FeS-B#9)), 2.41 grams. Further, the “Mean value of visual ratings” value in data set [4] (setting [6]) was 43.3; in data set [4] (setting [7]), 51.7; in data set [4] (setting [9]), 40; in data set [4] (setting [11]), 68.3; in data set [4] (setting [12]) it was 58.3; in data set [4] (setting [14]) it was 50. Also, the “Mean value of visual ratings” value in data set [4] (setting [15]) is listed as 66.7; in data set [4] (setting [16]) it was 63.3; in data set [4] (setting [17]) it was 43.3; in data set [4] (setting [18]), 90; in data set [4] (setting [19]) it was 70; in data set [4] (setting [20]) it was 50. In addition, the “Mean value of visual ratings” value in data set [4] (setting [21]) is 91.7; in data set [4] (setting [22]), 81.7; in data set [4] (setting [23]), 50.0. Also, in data set [4] (64, 125, and 250 g ai/ha), the “visual injury, treatment C versus treatments A or B” value is reported as “significantly less injured”. Moreover, the “Shoot weight, dipped in pCAO200SU1-FeS-B#9 culture versus water or YEME” value in data set [4] (125 g ai/ha) is reported as 2-3 times; in data set [4] (250 g ai/ha) it was 3-4 times greater.

Regarding `CCOC(=O)c1ccccc1S(=O)(=O)NC(=O)Nc1nc(O)cc(Cl)n1` [compound 10002, N-[(4-chloro-6-hydroxy-pyrimidin-2-yl)aminocarbonyl]-2-ethoxycarbonylbenzenesulfonamide], the concentration in supernatant in data set [2] (substrate 10001, 2 h) is 105 µM; in data set [2] (substrate 10001, 4 h), 116 µM; in data set [2] (substrate 10001, 6 h), 112 µM.

Take `COc1cc(Cl)nc(NC(=O)NS(=O)(=O)c2ccccc2C(=O)O)n1` [compound 10003, N-[(4-chloro-6-methoxy-pyrimidin-2-yol)aminocarbonyl]-2-carboxybenzenesulfonamide]: the concentration in supernatant in data set [1] (1.0 h) worked out at 0 µM; in data set [1] (4.0 h), 0 µM; in data set [2] (substrate 10001, 2 h), 86 µM; in data set [2] (substrate 10001, 4 h), 95 µM; in data set [2] (substrate 10001, 6 h), 94 µM; in data set [3] (0 h), 0 µM. The concentration in supernatant in data set [3] (24 h) came to 0 µM; in data set [3] (32 h), 0 µM; in data set [3] (48 h) it was 3 µM; in data set [3] (56 h) it was 3 µM.

Consider `COC(=O)c1ccccc1S(=O)(=O)NC(=O)Nc1nc(C)cc(C)n1` [compound 10010, N-[(4,6-dimethylpyrimidin-2-yl)aminocarbonyl]-2-methoxycarbonylbenzenesulfonamide], for which the concentration in supernatant in data set [2] (substrate 10010, 2 h) worked out at 35 µM; in data set [2] (substrate 10010, 4 h), 11 µM; in data set [2] (substrate 10010, 6 h), 4 µM. For the same molecule, the “Mean Shoot Fresh Weights” value in data set [4] (setting [5]) stood at 1.28 grams; in data set [4] (16 g ai/ha, Treatment B (YEME)) it was 1.58 grams; in data set [4] (setting [8]) it was 2.10 grams; in data set [4] (setting [10]) it was 0.65 grams; in data set [4] (32 g ai/ha, Treatment B (YEME)), 1.60 grams; in data set [4] (setting [13]), 1.79 grams. The “Mean value of visual ratings” value in data set [4] (setting [6]) turned out to be 70.0; in data set [4] (setting [7]), 63.3; in data set [4] (setting [9]) it was 60; in data set [4] (setting [11]), 93.3; in data set [4] (setting [12]), 66.7; in data set [4] (setting [14]), 56.7. Further, the “Mean value of visual ratings” value in data set [4] (setting [15]) amounted to 90.0; in data set [4] (setting [16]) it was 83.3; in data set [4] (setting [17]), 86.7; in data set [4] (setting [18]), 91.7; in data set [4] (setting [19]), 83.3; in data set [4] (setting [20]), 76.7. For the same molecule, the “Mean value of visual ratings” value worked out at 95.0 in data set [4] (setting [21]), 86.7 in data set [4] (setting [22]) and 85 in data set [4] (setting [23]). In addition, the “Visual Injury Ratings of individual transplanted tomatoes” value in data set [4] (setting [11]) is on record as 100,100,100; in data set [4] (setting [15]), 80,100,100; in data set [4] (setting [17]) it was 60,100,100; in data set [4] (setting [18]) it was 90,100,100; in data set [4] (250 g ai/ha, Treatment A (water), scale 0-100), 90,100,100. Also, the “visual injury across treatments A, B, C” value in data set [4] (all rates) is on record as “injured to similar extents regardless of the treatment they received”.
